Results reported in paper PMC8807399, “Synthesis, Characterization, and in vivo Evaluation of a Novel Potent Autotaxin-Inhibitor” (Frontiers in Pharmacology, 2022).
Converted amounts (≈) assume the structure as drawn.

Key:
HT-solubility assay = format: physicochemical; settings: aqueous buffer, thermodynamic from solid; phosphate buffer pH 6.5
Method: This assay was performed on a TECAN station starting from 10 mM DMSO stock solutions of the test compounds. Two aliquots of the test compound were dried and dissolved in phosphate buffer at pH 6.5. Sonication supports optimal re-solubilization. The solutions were then filtered and diluted (3 different dilution levels for each compound) followed by quantification of the dissolved material with Rapid-Fire MS. Quantification was performed for each test compound with a 6-point calibration curve prepared with the same DMSO starting solution.

[1] = In vitro microsomal stability, human; format: in vitro ADME; settings: human microsomes, 1 µM; value of 10 = low clearance, essentially below detection limit
Method: (§1) Incubations of a test compound at a concentration of 1 µM with microsomes (0.5 mg/ml) from the appropriate species (human, mouse, or rat) plus cofactor NADPH were performed in 96-well plates at 37°C on a TECAN automated liquid handling system (Tecan Group Ltd., Männedorf, Switzerland). After pre-incubation of the test compound with the microsomes for 10 min, the enzymatic reaction was started by the addition of cofactors. Aliquots of the incubations are removed at 1, 3, 6, 9, 15, 25, 35, and 45 min and are then quenched with 1:3 (v/v) acetonitrile containing internal standards. Samples were then cooled and centrifuged before analysis of the supernatant by LC-MS/MS. Logarithmic Peak area ratios (test compound peak area/internal standard peak area) were plotted against incubation time and a linear fit made to the data with emphasis upon the initial rate of compound disappearance. The slope of the fit was then used to calculate the intrinsic clearance: Clint (µL/min/mg protein) = −slope (min-1) * 1,000/[protein concentration (mg/ml)].

[2] = In vitro microsomal stability, mouse; format: in vitro ADME; settings: mouse microsomes, 1 µM; value of 10 = low clearance, essentially below detection limit
Method: as §1

[3] = Glutathione addition screening; format: in vitro ADME; settings: human liver microsomes + NADPH + GSH
Method: All sample handling was performed based on a 96-well plate format using an automated pipetting system. The test compounds, positive controls (diclofenac, troglitazone, nefazodone, 4-[[1-(4-fluorophenyl)-2-methyl-1H-imidazol-4-yl]ethynyl]-2-methylpyridine) and solvent control (DMSO) were incubated with human liver microsomes supplemented with NADPH and reduced GSH. Stable GSH conjugates whose production can be assumed to be the result of chemically reactive metabolites were detected using a quadrupole time of flight mass spectrometer run in untargeted full scan accurate mass MSE mode (Waters Xevo G1 QTOFMSE; Waters GmbH, Eschborn, Germany). This generic GSH adduct detection method and the assay workflow are taking advantage of the specific fragmentation behavior of the peptide moiety upon collision induced dissociation of GSH adducts and so are largely independent of the conjugate (“X”) itself.

human ATX = molecular target: T1, human ATX (Homo sapiens, UniProt Q13822); experiment: Autotaxin inhibition assay (Amplex-Red); format: biochemical; settings: ATX 3 nM, LPC 18:1 30 μM, read-out: hATX IC50
T1 construct: made in house
Method: Plates were sealed and incubated for 5 min. The final assay concentrations were ATX 3 nM, choline oxidase 2 U/ml, horseradish peroxidase 4 U/ml, LPC 18:1 30 μM, Amplex Red 50 μM, and DMSO 2%.

[4] = Lipophilicity (LogD, octanol/buffer); format: physicochemical; settings: 1-octanol / 25 mM phosphate buffer; pH 7.4, octanol/25 mM phosphate buffer
Method: The experiment started with the accurate coating of the hydrophobic layer (0.45 µm PVDF membranes), which was fixed on the bottom of each DIFI©-tube (Weidmann Medical Technology AG, Rapperswil, Switzerland). The coated membranes were then connected to a 96-well plate which has been prefilled with exactly 150 µl of the selected aqueous buffer solution (25 mM phosphate buffer, pH 7.4). The buffer solution contains already the compound of interest with a maximum starting concentration of 85 µM. To expand the measurement range down to logD = −0.5 and up to logD = +4, it is necessary to carry out the procedure at two different octanol/water ratios: One with an excess of octanol for hydrophilic compounds (logD < 1) and one with a low volume of octanol for the lipophilic compounds (logD > 1). Therefore, parts of the DIFI©-tubes were filled with 15 µl 1-octanol and another part with 1 µl 1-octanol. The resulting sandwich guarantees that the membrane was completely dipped in the buffer solution. The plate was then sealed and shaken for 12 h at room temperature (23°C). During this time, the substance is distributed between the layer, the octanol, and the buffer solution. After having reached a distribution equilibrium, the DIFI©-tubes were easily disassembled from the top of the 96-well plate, so that the remaining sample concentration in the aqueous phase could be analyzed by LC/MS.

[5] = In vitro microsomal stability, rat; format: in vitro ADME; settings: rat microsomes, 1 µM; value of 10 = low clearance, essentially below detection limit
Method: as §1

Single dose PK in rats = format: in vivo; settings: rat
Method: Exposures in animals treated with ATX-inhibitors were determined from K2EDTA treated plasma by LC-MS/MS at different time points. 25 µL of plasma was used for a single concentration determination. Concentration/time profiles were analyzed with MS Excel (Microsoft Corporation, Redmond, WA, United States).
For PK experiments for 7, 13, 14, and 15, respectively, animals were treated either iv or po and exposures were determined at different time points after compound administration. Suitable formulations for 13 were, for example, NMP:Tris buffer pH 8.5 (30%/70%) for iv administration with a nominal drug concentration of 1 mg/ml (dose 2 mg/kg) and a suspension in NMP:gelatine/NaCl (10%/90%) for po administration with a nominal drug concentration of 2.5 mg/ml (dose 10 mg/kg). PK parameters in Table 2 were estimated from the concentration time profiles using Phoenix WinNonlin software (Certara, Princeton, NJ, United States).

SMILES	solubility (HT-solubility assay) [µg/mL]	Mic CL h [1]	Mic CL m [2]	GSH adducts [3]	IC50 (human ATX) [µM]	logD at 12 h [4]	Mic CL r [5] [µL/m/mg prot]	AUC(0-inf) (Single dose PK in rats; plasma, iv bolus, 3 mg/kg) [µg·h/mL]	half-life (Single dose PK in rats; plasma, iv bolus, 3 mg/kg) [min]	clearance (Single dose PK in rats; plasma, iv bolus, 3 mg/kg, read-out: CLp) [L/h/kg]	Vd (Single dose PK in rats; plasma, iv bolus, 3 mg/kg, read-out: Vdss) [L/kg]	AUC(0-inf) (Single dose PK in rats; plasma, oral gavage, 20 mg/kg) [µg·h/mL]	Cmax (Single dose PK in rats; plasma, oral gavage, 20 mg/kg) [µg/mL]	Tmax (Single dose PK in rats; plasma, oral gavage, 20 mg/kg) [min]	half-life (Single dose PK in rats; plasma, oral gavage, 20 mg/kg) [min]	Oral F (Single dose PK in rats; oral gavage, 20 mg/kg) [%]
O=C(OCc1cc(Cl)cc(Cl)c1)N1CC[C@@H]2CN(C(=O)c3ccc4[nH]c(=O)oc4c3)C[C@H]2C1 (relative stereo) [Compound 2, trans-3,5-Dichlorobenzyl 2-(2-oxo-2,3-dihydrobenzo[d]oxazole-6-carbonyl)hexa-hydro-1H-pyrrolo[3,4-c]pyridine-5(6H)-carboxylate]	< 1	39 µL/m/mg prot	74 µL/m/mg prot	formation of GSH adducts was still observed and pos	0.003	3.7	–	–	–	–	–	–	–	–	–	–
O=C(OCc1cc(Cl)cc(Cl)c1)N1CC[C@@H]2CN(C(=O)c3ccc4[nH]nnc4c3)C[C@H]2C1 (relative stereo) [Compound 6, trans-2-(1H-Benzotriazole-5-carbonyl)-octahydro-pyrrolo[3,4-c]pyridine-5-carboxylic acid 3,5-dichloro-benzyl ester]	9 (≈ 19 µM)	23 µL/m/mg prot	65 µL/m/mg prot	pos	0.004	3.5	–	–	–	–	–	–	–	–	–	–
O=C(OCc1cc(Cl)cc(Cl)c1)N1CCC2(CC1)CN(C(=O)c1ccc3[nH]c(=O)oc3c1)C2 [Compound 4, 3,5-Dichlorobenzyl 2-(2-oxo-2,3-dihydrobenzo[d]oxazole-6-carbonyl)-2,7-diaza-spiro[3.5]-nonane-7-carboxylate]	< 1	54 µL/m/mg prot	149 µL/m/mg prot	pos	0.017	3.6	–	–	–	–	–	–	–	–	–	–
O=C(OCc1cc(Cl)cc(Cl)c1)N1C[C@@H]2CN(C(=O)c3ccc4[nH]c(=O)oc4c3)C[C@@H]2C1 [Compound 5, (3aR,6aS)-3,5-Dichlorobenzyl 5-(2-oxo-2,3-dihydrobenzo[d]oxazole-6-carbonyl)-hexahydropyrrolo[3,4-c]pyrrole-2(1H)-carboxylate]	19 (≈ 39.9 µM)	64 µL/m/mg prot	288 µL/m/mg prot	pos	0.065	3.3	335	–	–	–	–	–	–	–	–	–
O=C(OCc1cc(Cl)cc(Cl)c1)N1CCC2(CC1)CN(C(=O)c1ccc3[nH]nnc3c1)C2 [Compound 9, 3,5-Dichlorobenzyl 2-(1H-benzo[d][1,2,3]triazole-5-carbonyl)-2,7-diazaspiro[3.5]-nonane-7-carboxylate]	3 (≈ 6.32 µM)	30 µL/m/mg prot	63 µL/m/mg prot	pos	0.067	3.6	29	–	–	–	–	–	–	–	–	–
O=C(OCc1cc(Cl)cc(Cl)c1)N1CC[C@@H]2CN(C(=O)c3ccc4[nH]nnc4c3)C[C@@H]2CC1 [Compound 10, cis-3,5-Dichlorobenzyl 2-(1H-benzo[d][1,2,3]triazole-5-carbonyl)octahydropyrrolo-[3,4-d]azepine-6(7H)-carboxylate]	7 (≈ 14.3 µM)	252 µL/m/mg prot	727 µL/m/mg prot	–	0.001	–	–	–	–	–	–	–	–	–	–	–
O=C(/C=C/c1ccc(OC(F)(F)F)cc1)N1C[C@@H]2CN(C(=O)c3ccc4[nH]nnc4c3)C[C@H]2C1 [Compound 11, (E)-1-((3aR,6aR)-5-(1H-benzo[d][1,2,3]triazole-5-carbonyl)hexahydropyrrolo[3,4-c]pyrrol-2(1H)-yl)-3-(4-(trifluoromethoxy)phenyl)prop-2-en-1-one]	< 1	10/10/na µL/m/mg prot	10/10/na µL/m/mg prot	Neg	0.001	2.3	–	–	–	–	–	–	–	–	–	–

More lines, now with the values ahead:

solubility (HT-solubility assay) [µg/mL]	Mic CL h [1]	Mic CL m [2]	GSH adducts [3]	IC50 (human ATX) [µM]	logD at 12 h [4]	Mic CL r [5] [µL/m/mg prot]	AUC(0-inf) (Single dose PK in rats; plasma, iv bolus, 3 mg/kg) [µg·h/mL]	half-life (Single dose PK in rats; plasma, iv bolus, 3 mg/kg) [min]	clearance (Single dose PK in rats; plasma, iv bolus, 3 mg/kg, read-out: CLp) [L/h/kg]	Vd (Single dose PK in rats; plasma, iv bolus, 3 mg/kg, read-out: Vdss) [L/kg]	AUC(0-inf) (Single dose PK in rats; plasma, oral gavage, 20 mg/kg) [µg·h/mL]	Cmax (Single dose PK in rats; plasma, oral gavage, 20 mg/kg) [µg/mL]	Tmax (Single dose PK in rats; plasma, oral gavage, 20 mg/kg) [min]	half-life (Single dose PK in rats; plasma, oral gavage, 20 mg/kg) [min]	Oral F (Single dose PK in rats; oral gavage, 20 mg/kg) [%]	SMILES
< 1	65 µL/m/mg prot	78 µL/m/mg prot	pos	–	2.7	84	–	–	–	–	–	–	–	–	–	O=C(CCN1CCN(C(=O)OCc2cc(Cl)cc(Cl)c2)CC1)c1ccc2[nH]c(=O)oc2c1 [Compound 1, reference compound]
< 1	92 µL/m/mg prot	81 µL/m/mg prot	–	0.22	3.6	–	–	–	–	–	–	–	–	–	–	O=C(OCc1cc(Cl)cc(Cl)c1)N1CC2(CCN(C(=O)c3ccc4[nH]c(=O)oc4c3)CC2)C1 [Compound 3, trans-3,5-Dichlorobenzyl 7-(2-oxo-2,3-dihydrobenzo[d]oxazole-6-carbonyl)-2,7-diaza-spiro[3.5]nonane-2-carboxylate]
9 (≈ 19.6 µM)	16 µL/m/mg prot	17 µL/m/mg prot	pos	0.004	3.1	10	2.14	48	1.38	1.3	7.9	2.5	15	96	54	O=C(OCc1cc(Cl)cc(Cl)c1)N1C[C@@H]2CN(C(=O)c3ccc4[nH]nnc4c3)C[C@H]2C1 [Compound 7, (3aS,6aS)-5-(1H-Benzotriazole-5-carbonyl)-hexahydro-pyrrolo [3,4-c]pyrrole-2-carboxylic acid 3,5-dichloro-benzyl ester]
34 (≈ 73.9 µM)	23 µL/m/mg prot	68 µL/m/mg prot	pos	0.265	3.1	–	–	–	–	–	–	–	–	–	–	O=C(OCc1cc(Cl)cc(Cl)c1)N1C[C@@H]2CN(C(=O)c3ccc4[nH]nnc4c3)C[C@@H]2C1 [Compound 8, (3aR,6aS)-3,5-dichlorobenzyl 5-(1H-benzo[d][1,2,3]triazole-5-carbonyl)hexahydro-pyrrolo[3,4-c]pyrrole-2(1H)-carboxylate]
